Where two headings read alike, the source gives them in different places.
Assay: LD50 (acute toxicity)
Design: species or system mice
Settings: mouse, in vivo
Protocol: All the compounds exemplified in this specification are active on at least one of these standard tests at a dose of equal to or less than 100 mg./kg. of the free base. […] Other LD50 values for compounds of the invention when dosed intravenously are as follows: […]

[1] = intravenous, read-out: LD50 when dosed intravenously

| SMILES | LD50 [1] [mg/kg] | LD50 (mice, oral, read-out: oral LD50) [mg/kg] |
| --- | --- | --- |
| CC(=O)Oc1cccc2c1Oc1cc(Cl)ccc1C21CCN(C)CC1 [4-OAc H 6-Cl H] | > 35 | – |
| COc1ccc2c(c1)Oc1c(OC(C)=O)cccc1C21CCN(C)CC1 [4-OAc H 6-OMe H] | > 20 | – |
| CSc1ccc2c(c1)Oc1c(OC(C)=O)cccc1C21CCN(C)CC1 [4-OAc H 6-SMe H] | > 40 | – |
| CN1CCC2(CC1)c1cccc(O)c1Oc1cccc(F)c12 [4-OH H 8-F H] | > 20 | – |
| CN1CCC2(CC1)c1ccc(Cl)cc1Oc1c(O)cccc12 [6-chloro-4-hydroxy-1'-methylxanthene-9-spiro-4'-piperidine] | > 25 | > 200 |
